The source made the active and inactive calls. The calls are words filed in the database; no cut-off is given here.
How the values were obtained:
MOLM-13 = assay: cells; conditions: Homo sapiens, MOLM-13, 72 h
MV4-11 [1] = assay: Induction of cell cycle arrest in human MV4-11 cells assessed as proportion of cells at subG1 phase at 3.2 nM incubated for 24 hrs by PI staining based flow cytometry (reference value: 10.44%); format: functional
MV4-11 [2] = assay: Antiproliferative activity against human MV4-11 cells harboring homozygous FLT3-ITD mutant assessed as inhibition of cell growth incubated for 72 hrs by resazurin dye based fluorescence analysis; format: functional
MV4-11 [3] = assay: Induction of cell cycle arrest in human MV4-11 cells assessed as proportion of cells at subG1 phase at 16 nM incubated for 24 hrs by PI staining based flow cytometry (reference value: 10.44%); format: functional
MV4-11 [4] = format: functional, Homo sapiens; conditions: dose 16 nM; time 24 hrs
MV4-11 [5] = assay: Induction of cell cycle arrest in human MV4-11 cells assessed as proportion of cells at G2/M phase at 3.2 nM incubated for 24 hrs by PI staining based flow cytometry (reference value: 10%); format: functional
[6] = molecular target: High affinity nerve growth factor receptor (Homo sapiens) (UniProt P04629); assay: Binding affinity to human TrkA (441 to 760 residues) expressed in baculovirus-infected Sf21 cells assessed as residual activity using poly(Glu:Tyr) as substrate in presence of ATP and [gamma-33P]ATP incubated for 30 mins by MRC Protein Phoshorylation and Ubiquitylation Unit based Express Panel assay
MV4-11 [7] = assay: Induction of cell cycle arrest in human MV4-11 cells assessed as proportion of cells at S phase at 3.2 nM incubated for 24 hrs by PI staining based flow cytometry (reference value: 25.97%); format: functional
[8] = tested on: Receptor-type tyrosine-protein kinase FLT3 (Homo sapiens), P36888 [UNDEFINED MUTATION]; format: cell-based; conditions: BaF3, dose lower […], dose upper 2000.0 nM, time 2.0 hrs
HL-60 [9] = assay: Induction of cell cycle arrest in human HL-60 cells assessed as proportion of cells at G1 phase at 3.2 nM incubated for 24 hrs by PI staining based flow cytometry (reference value: 49.36%); format: functional
MV4-11 [10] = assay: Induction of cell cycle arrest in human MV4-11 cells assessed as proportion of cells at G2/M phase at 80 nM incubated for 24 hrs by PI staining based flow cytometry (reference value: 10%); format: functional
[11] = molecular target: T1, Receptor-type tyrosine-protein kinase FLT3 (Homo sapiens, UniProt P36888)
T1 sequence (P36888 whole entry): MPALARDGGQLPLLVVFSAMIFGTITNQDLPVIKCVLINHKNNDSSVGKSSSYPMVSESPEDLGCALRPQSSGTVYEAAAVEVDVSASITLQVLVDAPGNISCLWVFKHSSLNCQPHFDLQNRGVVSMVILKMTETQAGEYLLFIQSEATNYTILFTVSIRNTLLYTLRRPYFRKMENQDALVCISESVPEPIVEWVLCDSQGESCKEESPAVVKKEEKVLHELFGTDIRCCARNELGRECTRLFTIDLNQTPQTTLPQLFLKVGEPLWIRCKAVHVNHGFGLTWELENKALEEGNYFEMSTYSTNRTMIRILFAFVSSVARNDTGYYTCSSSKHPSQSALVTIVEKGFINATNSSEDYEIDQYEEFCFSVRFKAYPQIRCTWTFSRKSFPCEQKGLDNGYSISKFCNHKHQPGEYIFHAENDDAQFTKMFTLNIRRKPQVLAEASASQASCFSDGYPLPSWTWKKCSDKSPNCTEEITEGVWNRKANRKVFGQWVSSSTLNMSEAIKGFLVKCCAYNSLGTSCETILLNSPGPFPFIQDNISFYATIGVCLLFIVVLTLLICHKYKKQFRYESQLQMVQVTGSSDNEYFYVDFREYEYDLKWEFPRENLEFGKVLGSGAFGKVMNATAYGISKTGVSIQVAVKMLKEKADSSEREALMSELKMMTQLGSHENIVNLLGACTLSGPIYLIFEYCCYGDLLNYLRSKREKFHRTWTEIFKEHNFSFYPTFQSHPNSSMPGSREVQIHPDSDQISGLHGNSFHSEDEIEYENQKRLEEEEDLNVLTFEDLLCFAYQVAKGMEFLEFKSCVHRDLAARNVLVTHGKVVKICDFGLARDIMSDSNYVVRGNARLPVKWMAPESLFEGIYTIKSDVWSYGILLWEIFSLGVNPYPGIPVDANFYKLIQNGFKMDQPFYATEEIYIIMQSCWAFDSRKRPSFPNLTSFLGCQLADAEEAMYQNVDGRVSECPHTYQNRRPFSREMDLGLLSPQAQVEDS
Description: Inhibition of NanoLuc-fused FLT3 (unknown origin) transfected in HEK293 cells incubated for 2 hrs by NanoBRET target engagement assay

[12] = tested on: Receptor-type tyrosine-protein kinase FLT3 (Homo sapiens), P36888 [UNDEFINED MUTATION]; assay: Inhibition of FLT3-ITD mutant (unknown origin) expressed in mouse BaF3 cells assessed as inhibition of ERK1/2 phosphorylation at Thr202/Tyr204 residues at 16 to 2000 nM incubated for 2 hrs by immunoblot analysis; format: cell-based; conditions: dose lower […], dose upper 2000.0 nM
HL-60 [13] = assay: Induction of cell cycle arrest in human HL-60 cells assessed as proportion of cells at subG1 phase at 400 nM incubated for 24 hrs by PI staining based flow cytometry (reference value: 6.94%); format: functional
HL-60 [14] = assay: Induction of cell cycle arrest in human HL-60 cells assessed as proportion of cells at G2/M phase at 2000 nM incubated for 24 hrs by PI staining based flow cytometry (reference value: 14.52%); format: functional
[15] = molecular target: Receptor-type tyrosine-protein kinase FLT3 (Homo sapiens) (UniProt P36888); assay: Inhibition of FLT3 in human MV4-11 cells assessed as inhibition of FLT3 autophosphorylation at Tyr589/591 residues incubated for 1 hr by immunoblot analysis; format: cell-based; conditions: dose lower […], dose upper 2000.0 nM
HL-60 [16] = assay: Induction of cell cycle arrest in human HL-60 cells assessed as proportion of cells at G2/M phase at 16 nM incubated for 24 hrs by PI staining based flow cytometry (reference value: 14.52%); format: functional
[17] = tested on: Receptor-type tyrosine-protein kinase FLT3 (Homo sapiens), P36888 [UNDEFINED MUTATION]; assay: Inhibition of FLT3-ITD mutant (unknown origin) expressed in mouse BaF3 cells assessed as inhibition of FLT3 autophosphorylation at Tyr589/591 residues at 16 to 2000 nM incubated for 2 hrs by immunoblot analysis; format: cell-based; conditions: dose lower […], dose upper 2000.0 nM
MV4-11 [18] = assay: Induction of cell cycle arrest in human MV4-11 cells assessed as proportion of cells at S phase at 400 nM incubated for 24 hrs by PI staining based flow cytometry (reference value: 25.97%); format: functional
MV4-11 [19] = format: functional, Homo sapiens; conditions: dose 3.2 nM; time 24 hrs
MV4-11 [20] = assay: Induction of cell cycle arrest in human MV4-11 cells assessed as proportion of cells at S phase at 2000 nM incubated for 24 hrs by PI staining based flow cytometry (reference value: 25.97%); format: functional
MV4-11 [21] = format: functional, Homo sapiens; conditions: dose 2000 nM; time 24 hrs
HL-60 [22] = assay: Induction of cell cycle arrest in human HL-60 cells assessed as proportion of cells at subG1 phase at 2000 nM incubated for 24 hrs by PI staining based flow cytometry (reference value: 6.94%); format: functional
HL-60 [23] = assay: Induction of cell cycle arrest in human HL-60 cells assessed as proportion of cells at G1 phase at 400 nM incubated for 24 hrs by PI staining based flow cytometry (reference value: 49.36%); format: functional

Sequence of High affinity nerve growth factor receptor (Homo sapiens) (P04629 33-796 limits assumed): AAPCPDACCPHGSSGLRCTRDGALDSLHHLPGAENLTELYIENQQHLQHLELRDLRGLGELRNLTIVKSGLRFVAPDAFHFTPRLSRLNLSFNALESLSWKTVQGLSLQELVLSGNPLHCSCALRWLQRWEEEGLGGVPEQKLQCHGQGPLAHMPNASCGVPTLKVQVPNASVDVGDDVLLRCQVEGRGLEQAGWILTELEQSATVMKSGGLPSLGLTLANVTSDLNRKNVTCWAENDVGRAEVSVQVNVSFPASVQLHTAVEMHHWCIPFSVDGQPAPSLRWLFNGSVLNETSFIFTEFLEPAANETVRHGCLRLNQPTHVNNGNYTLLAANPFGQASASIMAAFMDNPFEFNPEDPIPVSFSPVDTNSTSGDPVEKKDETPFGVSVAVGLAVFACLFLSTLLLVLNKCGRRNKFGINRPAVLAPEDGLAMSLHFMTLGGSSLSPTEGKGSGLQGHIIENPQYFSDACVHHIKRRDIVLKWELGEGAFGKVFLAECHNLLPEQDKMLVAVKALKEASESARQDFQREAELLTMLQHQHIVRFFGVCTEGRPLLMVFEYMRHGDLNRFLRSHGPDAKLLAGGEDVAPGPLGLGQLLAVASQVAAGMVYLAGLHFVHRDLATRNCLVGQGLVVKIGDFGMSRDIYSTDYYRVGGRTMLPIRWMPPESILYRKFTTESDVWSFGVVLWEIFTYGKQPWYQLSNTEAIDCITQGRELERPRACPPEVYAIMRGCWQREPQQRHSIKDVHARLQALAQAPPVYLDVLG

COc1ccc(NC(=O)Nc2nnc(Sc3ncnc4oc(-c5ccccc5)cc34)s2)cc1
GI50 (MOLM-13): 0.063 µM | Activity (MV4-11 [1]): 12.84% | GI50 (MV4-11 [2]): 0.105 µM | Activity (MV4-11 [3]): 16.42% | Activity (MV4-11 [4]): 89.29% | Activity (MV4-11 [5]): 6.22% | Activity [6]: < 50% | Activity (MV4-11 [7]): 20.86% | inhibition [8]: Active | Activity (HL-60 [9]): 49.95% | Activity (MV4-11 [10]): 1.23% | IC50 [11]: 0.174 µM | inhibition [12]: Active | Activity (HL-60 [13]): 7.9% | Activity (HL-60 [14]): 13.94% | inhibition [15]: Dose-dependent-effect | Activity (HL-60 [16]): 13.57% | inhibition [17]: Active | Activity (MV4-11 [18]): 4.48% | Activity (MV4-11 [19]): 72.92% | Activity (MV4-11 [20]): 5.78% | Activity (MV4-11 [21]): 93.13% | Activity (HL-60 [22]): 7.81% | Activity (HL-60 [23]): 50.35%
